According to paper PMC11995211, “Design, Synthesis, and Evaluation of a New Fluorescent Ligand for the M2 Muscarinic Acetylcholine Receptor” (ACS Medicinal Chemistry Letters, 2025):

Tests used:
[1] = Photophysical measurements and photostability; assay type: physicochemical
Description: Next, we investigated the photophysical properties of the fluorescent probe 33. In acetonitrile, the probe has an absorption maximum at 520 nm and a fluorescence maximum at 547 nm with a Stokes shift of 27 nm. […] The dye was pH sensitive, with intensity increasing at higher pH. Following a literature procedure, we examined the effect of protein (BSA) on the ligand. […]
Photophysical Measurements
Absorbance measurements were performed using a Jasco V-750 Spectrophotometer standard cell quartz cuvette with 1 cm light path length, 1 nm bandwidth, 400 nm/min recording speed) operating at 21 °C. The fluorescence measurements were carried out on a Jasco FP8300 spectrofluorometer in a standard cell quartz cuvette (1 cm light path length). Both the excitation and emission slit widths were both set to 2.5 nm, and the scanning speed was 400 nm/min. Pure solvents were used for blank correction. Absorbance spectra and excitation spectra were recorded in the range of […]. For the emission spectra, we excited the sample at the excitation maximum, and measured it from excitation maximum plus 10 nm to 800 nm.
Quantum yields were calculated by recording the fluorescence spectra of a series of different concentrations. The gradient of the integrated fluorescence intensities plotted against absorbance at the excitation wavelength was used for the calculation of the quantum yields:
The compound 33 was excited at 360 nm, OG488-NHS was used as reference (Φwater = […]
Solvent screening measurements were conducted using 5 μM solutions of the fluorescent probe 33 in various solvents, including acetonitrile, 1,4 -dioxane, water, toluene, dichloromethane, tetrahydrofuran, ethanol, PBS buffer (pH=5; 7; 7.4, 9), PBS buffer (pH=7.4) with 1% BSA, and ethyl acetate. Photostability measurements were performed with 5 μM solution of in PBS buffer (pH=7). The samples were exposed to a 4 W light-emitting diode emitting at 450 nm, and emission spectra were recorded.

hM1R = molecular target: T1, hM1R (Homo sapiens, UniProt P11229); test: Radioligand competition binding, [3H]-scopolamine (N-methyl), CHO cell membranes, hM1R; details: 10 μM compound; radioligand binding; read-out: inhibition at 10 μM (M1)
T1 construct: expressed in transfected cells; host or cells: CHO cell membranes
T1 sequence (P11229 1-460): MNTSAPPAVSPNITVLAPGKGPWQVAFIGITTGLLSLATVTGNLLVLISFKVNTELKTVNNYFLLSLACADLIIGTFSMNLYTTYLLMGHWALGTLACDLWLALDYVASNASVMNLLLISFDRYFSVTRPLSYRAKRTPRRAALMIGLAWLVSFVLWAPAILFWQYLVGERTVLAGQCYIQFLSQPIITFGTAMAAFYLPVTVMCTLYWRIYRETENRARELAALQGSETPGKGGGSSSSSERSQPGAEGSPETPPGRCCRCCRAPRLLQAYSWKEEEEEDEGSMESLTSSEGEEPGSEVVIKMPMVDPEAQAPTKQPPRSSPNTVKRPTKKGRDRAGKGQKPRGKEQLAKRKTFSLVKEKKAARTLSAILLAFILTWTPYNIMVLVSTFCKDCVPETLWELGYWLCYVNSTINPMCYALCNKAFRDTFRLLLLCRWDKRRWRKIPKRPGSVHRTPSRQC

M2R–Cerulean = molecular target: T2, M2R–Cerulean (Homo sapiens, UniProt P08172); test: Confocal microscopy labeling of live HEK 293T cells; assay type: cell-based
T2 construct: expressed in transfected cells
T2 sequence (P08172 1-466): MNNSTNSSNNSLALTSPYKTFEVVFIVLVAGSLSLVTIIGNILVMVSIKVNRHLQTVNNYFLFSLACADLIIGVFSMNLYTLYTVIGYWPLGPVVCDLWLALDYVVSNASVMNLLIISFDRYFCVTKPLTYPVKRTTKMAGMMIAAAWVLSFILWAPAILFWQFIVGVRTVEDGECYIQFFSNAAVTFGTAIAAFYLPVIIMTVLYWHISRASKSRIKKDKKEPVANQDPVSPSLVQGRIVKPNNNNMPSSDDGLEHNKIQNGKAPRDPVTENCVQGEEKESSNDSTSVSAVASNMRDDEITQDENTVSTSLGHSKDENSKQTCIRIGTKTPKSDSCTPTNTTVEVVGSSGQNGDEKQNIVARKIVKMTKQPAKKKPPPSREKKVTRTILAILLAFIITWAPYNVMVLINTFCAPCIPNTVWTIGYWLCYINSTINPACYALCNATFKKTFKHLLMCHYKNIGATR

hM5R = molecular target: T3, hM5R (Homo sapiens, UniProt P08912); test: Radioligand competition binding, [3H]-scopolamine (N-methyl), CHO cell membranes, hM5R; details: mean ± SD, n = 3; membranes from CHO cells transfected with hM5R; read-out: Receptor Ki M5
T3 construct: expressed in transfected cells; host or cells: CHO cell membranes
T3 sequence (P08912 1-532): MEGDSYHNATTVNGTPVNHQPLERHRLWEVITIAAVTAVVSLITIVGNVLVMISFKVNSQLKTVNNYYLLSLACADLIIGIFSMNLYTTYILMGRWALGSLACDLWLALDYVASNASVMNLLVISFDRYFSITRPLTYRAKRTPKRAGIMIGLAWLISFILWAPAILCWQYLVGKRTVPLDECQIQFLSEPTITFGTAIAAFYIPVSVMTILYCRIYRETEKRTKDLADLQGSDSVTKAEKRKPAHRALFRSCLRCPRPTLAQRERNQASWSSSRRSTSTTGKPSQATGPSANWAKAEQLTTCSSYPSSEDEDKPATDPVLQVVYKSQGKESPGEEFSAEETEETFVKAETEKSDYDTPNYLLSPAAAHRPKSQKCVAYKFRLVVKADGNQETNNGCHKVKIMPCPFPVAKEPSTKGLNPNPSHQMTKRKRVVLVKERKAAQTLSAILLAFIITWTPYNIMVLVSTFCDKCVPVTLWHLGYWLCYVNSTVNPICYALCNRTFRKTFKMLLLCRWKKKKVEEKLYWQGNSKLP

For `O=C(CCOCCOCCNC(=O)c1ccc(-c2c3cc(F)c(=O)cc-3oc3cc(O)c(F)cc23)c(C(=O)O)c1)NCCOCCOCCNc1ccccc1C(=O)N1CCC(N2CCC(Cc3ccc(S(=O)(=O)c4cccc(Cl)c4)cc3)CC2)CC1` [Compound 33], the “photostability: irradiation time to half of the original fluorescence intensity” value ([1]; PBS (pH 7), 5 μM, 4 W, 450 nm light) was 10 min, the Stokes shift ([1]; in acetonitrile) was 27 nm and the absorption maximum ([1]; in acetonitrile) was 520 nm. The brightness ([1]; in acetonitrile) was 8501, the fluorescence maximum ([1]; in acetonitrile) was 547 nm and the “molar extinction coefficient (ε)” value ([1]; in acetonitrile) was 42504.9 M^–1 cm^–1. For the same compound, the “fluorescence quantum yield (Φf)” value ([1]; in acetonitrile, OG488-NHS as reference) was 0.20, the inhibition at 10 µM (hM1R) was 38% and the “labeling of M2R–Cerulean-expressing cells” value (M2R–Cerulean; 300 nM, 3 min, live transfected HEK 293T) was “significant labeling”. The “labeling of nontransfected cells” value (M2R–Cerulean; 300 nM, 3 min, nontransfected HEK 293T) was “no labeling was observed”, the “labeling after atropine pretreatment” value (M2R–Cerulean; 100 μM atropine 5 min before 300 nM 33) was “no labeling” and the Ki (hM5R) was 182 ± 23 nM.
